# In the supplement of paper PMC8882468:
# Test system: HCI-024 (organoid from a breast cancer xenograft)
# Assay: CTG-3D luminescence at 96 h relative to day-0 seeding control (ratio to day 0); higher = more growth / less cytotoxicity; PDxO 3D drug screen, 96 h, CTG-3D normalised to day-0 seeding control.
# Details: 1 µM; days in culture: 105
row,Structure (SMILES),CTG-3D luminescence at 96 h
1,CC(C)(C(=O)NCC(F)(F)C(F)(F)F)C(=O)N[C@@H]1C(=O)Nc2ccccc2-c2ccccc21,1.67
2,CCN(c1cc(C#CCN2CCOCC2)cc(C(=O)NCc2c(C)cc(C)[nH]c2=O)c1C)[C@H]1CC[C@H](N(C)CCOC)CC1,1.77
3,NC(=O)Nc1cc(-c2cccc(F)c2)sc1C(=O)N[C@H]1CCCNC1 [AZD7762],0.236
4,O=C(/C=C/c1cccnc1)NCCCCC1CCN(C(=O)c2ccccc2)CC1 [FK866],0.157
5,CCc1c2c(nc3ccc(O)cc13)-c1cc3c(c(=O)n1C2)COC(=O)[C@]3(O)CC [SN-38],0.264
6,CCN1CCN(Cc2ccc(Nc3ncc(F)c(-c4cc(F)c5nc(C)n(C(C)C)c5c4)n3)nc2)CC1 [abemaciclib],1.25
7,C=CCn1c(=O)c2cnc(Nc3ccc(N4CCN(C)CC4)cc3)nc2n1-c1cccc(C(C)(C)O)n1 [adavosertib],0.852

# Same assay, conditions: 1 µM; days in culture: 122
row,Structure (SMILES),CTG-3D luminescence at 96 h
1,CC(C)(C(=O)NCC(F)(F)C(F)(F)F)C(=O)N[C@@H]1C(=O)Nc2ccccc2-c2ccccc21,1.64
2,CCN(c1cc(C#CCN2CCOCC2)cc(C(=O)NCc2c(C)cc(C)[nH]c2=O)c1C)[C@H]1CC[C@H](N(C)CCOC)CC1,2.34
3,NC(=O)Nc1cc(-c2cccc(F)c2)sc1C(=O)N[C@H]1CCCNC1 [AZD7762],0.308
4,O=C(/C=C/c1cccnc1)NCCCCC1CCN(C(=O)c2ccccc2)CC1 [FK866],0.209
5,CCc1c2c(nc3ccc(O)cc13)-c1cc3c(c(=O)n1C2)COC(=O)[C@]3(O)CC [SN-38],0.272
6,CCN1CCN(Cc2ccc(Nc3ncc(F)c(-c4cc(F)c5nc(C)n(C(C)C)c5c4)n3)nc2)CC1 [abemaciclib],1.62
7,C=CCn1c(=O)c2cnc(Nc3ccc(N4CCN(C)CC4)cc3)nc2n1-c1cccc(C(C)(C)O)n1 [adavosertib],1.38

# Same assay, conditions: 1 µM; days in culture: 163
row,Structure (SMILES),CTG-3D luminescence at 96 h
1,CC(C)(C(=O)NCC(F)(F)C(F)(F)F)C(=O)N[C@@H]1C(=O)Nc2ccccc2-c2ccccc21,2.12
2,CCN(c1cc(C#CCN2CCOCC2)cc(C(=O)NCc2c(C)cc(C)[nH]c2=O)c1C)[C@H]1CC[C@H](N(C)CCOC)CC1,2.29
3,NC(=O)Nc1cc(-c2cccc(F)c2)sc1C(=O)N[C@H]1CCCNC1 [AZD7762],0.309
4,O=C(/C=C/c1cccnc1)NCCCCC1CCN(C(=O)c2ccccc2)CC1 [FK866],0.181
5,CCc1c2c(nc3ccc(O)cc13)-c1cc3c(c(=O)n1C2)COC(=O)[C@]3(O)CC [SN-38],0.262
6,CCN1CCN(Cc2ccc(Nc3ncc(F)c(-c4cc(F)c5nc(C)n(C(C)C)c5c4)n3)nc2)CC1 [abemaciclib],1.94
7,C=CCn1c(=O)c2cnc(Nc3ccc(N4CCN(C)CC4)cc3)nc2n1-c1cccc(C(C)(C)O)n1 [adavosertib],1.82

# Same assay, conditions: 10 µM; days in culture: 105
row,Structure (SMILES),CTG-3D luminescence at 96 h
1,CC(C)(C(=O)NCC(F)(F)C(F)(F)F)C(=O)N[C@@H]1C(=O)Nc2ccccc2-c2ccccc21,2.09
2,CCN(c1cc(C#CCN2CCOCC2)cc(C(=O)NCc2c(C)cc(C)[nH]c2=O)c1C)[C@H]1CC[C@H](N(C)CCOC)CC1,2.22
3,NC(=O)Nc1cc(-c2cccc(F)c2)sc1C(=O)N[C@H]1CCCNC1 [AZD7762],0.228
4,O=C(/C=C/c1cccnc1)NCCCCC1CCN(C(=O)c2ccccc2)CC1 [FK866],0.205
5,CCc1c2c(nc3ccc(O)cc13)-c1cc3c(c(=O)n1C2)COC(=O)[C@]3(O)CC [SN-38],0.153
6,CCN1CCN(Cc2ccc(Nc3ncc(F)c(-c4cc(F)c5nc(C)n(C(C)C)c5c4)n3)nc2)CC1 [abemaciclib],0.994
7,C=CCn1c(=O)c2cnc(Nc3ccc(N4CCN(C)CC4)cc3)nc2n1-c1cccc(C(C)(C)O)n1 [adavosertib],0.412

# Same assay, conditions: 10 µM; days in culture: 122
row,Structure (SMILES),CTG-3D luminescence at 96 h
1,CC(C)(C(=O)NCC(F)(F)C(F)(F)F)C(=O)N[C@@H]1C(=O)Nc2ccccc2-c2ccccc21,2.55
2,CCN(c1cc(C#CCN2CCOCC2)cc(C(=O)NCc2c(C)cc(C)[nH]c2=O)c1C)[C@H]1CC[C@H](N(C)CCOC)CC1,3.46
3,NC(=O)Nc1cc(-c2cccc(F)c2)sc1C(=O)N[C@H]1CCCNC1 [AZD7762],0.273
4,O=C(/C=C/c1cccnc1)NCCCCC1CCN(C(=O)c2ccccc2)CC1 [FK866],0.222
5,CCc1c2c(nc3ccc(O)cc13)-c1cc3c(c(=O)n1C2)COC(=O)[C@]3(O)CC [SN-38],0.192
6,CCN1CCN(Cc2ccc(Nc3ncc(F)c(-c4cc(F)c5nc(C)n(C(C)C)c5c4)n3)nc2)CC1 [abemaciclib],2.1
7,C=CCn1c(=O)c2cnc(Nc3ccc(N4CCN(C)CC4)cc3)nc2n1-c1cccc(C(C)(C)O)n1 [adavosertib],0.414

# Same assay, conditions: 10 µM; days in culture: 163
row,Structure (SMILES),CTG-3D luminescence at 96 h
1,CC(C)(C(=O)NCC(F)(F)C(F)(F)F)C(=O)N[C@@H]1C(=O)Nc2ccccc2-c2ccccc21,2.52
2,CCN(c1cc(C#CCN2CCOCC2)cc(C(=O)NCc2c(C)cc(C)[nH]c2=O)c1C)[C@H]1CC[C@H](N(C)CCOC)CC1,2.35
3,NC(=O)Nc1cc(-c2cccc(F)c2)sc1C(=O)N[C@H]1CCCNC1 [AZD7762],0.267
4,O=C(/C=C/c1cccnc1)NCCCCC1CCN(C(=O)c2ccccc2)CC1 [FK866],0.166
5,CCc1c2c(nc3ccc(O)cc13)-c1cc3c(c(=O)n1C2)COC(=O)[C@]3(O)CC [SN-38],0.185
6,CCN1CCN(Cc2ccc(Nc3ncc(F)c(-c4cc(F)c5nc(C)n(C(C)C)c5c4)n3)nc2)CC1 [abemaciclib],1.38
7,C=CCn1c(=O)c2cnc(Nc3ccc(N4CCN(C)CC4)cc3)nc2n1-c1cccc(C(C)(C)O)n1 [adavosertib],0.466

# Same assay, conditions: 100 µM; days in culture: 105
row,Structure (SMILES),CTG-3D luminescence at 96 h
1,CC(C)(C(=O)NCC(F)(F)C(F)(F)F)C(=O)N[C@@H]1C(=O)Nc2ccccc2-c2ccccc21,1.22
2,CCN(c1cc(C#CCN2CCOCC2)cc(C(=O)NCc2c(C)cc(C)[nH]c2=O)c1C)[C@H]1CC[C@H](N(C)CCOC)CC1,1.53
3,NC(=O)Nc1cc(-c2cccc(F)c2)sc1C(=O)N[C@H]1CCCNC1 [AZD7762],0.00249
4,O=C(/C=C/c1cccnc1)NCCCCC1CCN(C(=O)c2ccccc2)CC1 [FK866],0.272
5,CCc1c2c(nc3ccc(O)cc13)-c1cc3c(c(=O)n1C2)COC(=O)[C@]3(O)CC [SN-38],0.114
6,CCN1CCN(Cc2ccc(Nc3ncc(F)c(-c4cc(F)c5nc(C)n(C(C)C)c5c4)n3)nc2)CC1 [abemaciclib],0.0179
7,C=CCn1c(=O)c2cnc(Nc3ccc(N4CCN(C)CC4)cc3)nc2n1-c1cccc(C(C)(C)O)n1 [adavosertib],0.179

# Same assay, conditions: 100 µM; days in culture: 122
row,Structure (SMILES),CTG-3D luminescence at 96 h
1,CC(C)(C(=O)NCC(F)(F)C(F)(F)F)C(=O)N[C@@H]1C(=O)Nc2ccccc2-c2ccccc21,1.21
2,CCN(c1cc(C#CCN2CCOCC2)cc(C(=O)NCc2c(C)cc(C)[nH]c2=O)c1C)[C@H]1CC[C@H](N(C)CCOC)CC1,1.5
3,NC(=O)Nc1cc(-c2cccc(F)c2)sc1C(=O)N[C@H]1CCCNC1 [AZD7762],0.00352
4,O=C(/C=C/c1cccnc1)NCCCCC1CCN(C(=O)c2ccccc2)CC1 [FK866],0.172
5,CCc1c2c(nc3ccc(O)cc13)-c1cc3c(c(=O)n1C2)COC(=O)[C@]3(O)CC [SN-38],0.13
6,CCN1CCN(Cc2ccc(Nc3ncc(F)c(-c4cc(F)c5nc(C)n(C(C)C)c5c4)n3)nc2)CC1 [abemaciclib],0.0233
7,C=CCn1c(=O)c2cnc(Nc3ccc(N4CCN(C)CC4)cc3)nc2n1-c1cccc(C(C)(C)O)n1 [adavosertib],0.145

# Same assay, conditions: 100 µM; days in culture: 163
row,Structure (SMILES),CTG-3D luminescence at 96 h
1,CC(C)(C(=O)NCC(F)(F)C(F)(F)F)C(=O)N[C@@H]1C(=O)Nc2ccccc2-c2ccccc21,1.71
2,CCN(c1cc(C#CCN2CCOCC2)cc(C(=O)NCc2c(C)cc(C)[nH]c2=O)c1C)[C@H]1CC[C@H](N(C)CCOC)CC1,1.91
3,NC(=O)Nc1cc(-c2cccc(F)c2)sc1C(=O)N[C@H]1CCCNC1 [AZD7762],0.00535
4,O=C(/C=C/c1cccnc1)NCCCCC1CCN(C(=O)c2ccccc2)CC1 [FK866],0.306
5,CCc1c2c(nc3ccc(O)cc13)-c1cc3c(c(=O)n1C2)COC(=O)[C@]3(O)CC [SN-38],0.173
6,CCN1CCN(Cc2ccc(Nc3ncc(F)c(-c4cc(F)c5nc(C)n(C(C)C)c5c4)n3)nc2)CC1 [abemaciclib],0.0196
7,C=CCn1c(=O)c2cnc(Nc3ccc(N4CCN(C)CC4)cc3)nc2n1-c1cccc(C(C)(C)O)n1 [adavosertib],0.225
